Experimental data reported in US11465978B2, “Anthranilic amides and the use thereof” (THE ADMINISTRATORS OF THE TULANE EDUCATIONAL FUND, priority 2013, dated 2022).
Where a name gives a salt, the structure may show the parent alone.

Key:
pERK5 = assay: Western blot, inhibition of EGF-mediated formation of pERK5 in MDA-MB-231 cells; assay type: cell-based; details: for pERK-5 decrease (%): DMSO = 0; for inhibition at 10 µM: Homo sapiens, MDA-MB-231, Table 1, MDA-MB-231, compounds 10 μM 30 min, then EGF 50 ng/mL 15 min, read-out: cellular pERK5 decrease (%)
Description: (§1) FIG. 9 is a set of bar graphs showing a Western blot analysis of potential MEK5 inhibitors. The MDA-MB-231 triple negative breast cancer cell line was pretreated with compounds (10 μM) for 30 minutes followed by stimulation with epidermal growth factor (EGF, 50 ng/mL) for 15 minutes. Vehicle-treated cells were pretreated with DMSO for 30 minutes prior to EGF stimulation for 15 minutes. Protein visualization and quantification analysis were performed using LI-COR Odyssey Imager. * P<0.05 vs. Vehicle, one-way ANOVA followed by Tukey-Kramer test (n=3).
(§2) A number of compounds were tested for their potential as MEK5 inhibitors. The MDA-MB-231 triple negative breast cancer cell line was pretreated with 10 μM of compounds 24, 9b, 9a, 9c, 9e, 9f, 9d, 9h, 23, 7, and 15 for 30 minutes followed by stimulation with epidermal growth factor (EGF, 50 ng/mL) for 15 minutes. Vehicle-treated cells and known MEK1/2 inhibitor cells were pretreated with DMSO and U0126 respectively for 30 minutes prior to EGF stimulation for 15 minutes. Protein visualization and quantification analysis was performed using LI-COR Odyssey Imager. The results of the Western blot analysis are shown in FIG. 9. * P<0.05 vs. Vehicle, one-way ANOVA followed by Tukey-Kramer test (n=3).
(§3) MDA-MB-231 cells were grown on 10 cm cell culture plates [Sarstedt] in Dulbecco's Modified Eagle's Medium (DMEM; Gibco) with Ham's F12 Nutrient Mixture (1:1) (Invitrogen), 10% heat-inactivated FBS [Atlanta Biological and 0.5% penicillin/streptomycin [Gibco]. Cells were maintained at 37° C. with 5% CO2. Plating of the cells was done 36 hours before treatment in 35 mm culture plates [Sarstedt] and allowed to reach confluence. To test MEK-5 inhibitors, the cells were treated with epidermal growth factor (EGF; Sigma-Aldrich) 30 min after treatment with the compounds. 15 min after the addition of EGF, the cells were washed with 1×PBS [Sigma-Aldrich] and then lysed in 1% Triton X-100 buffer containing 20 mM Tris (pH 6.8), 137 mM NaCl, 25 mM beta glycerophosphate, 2 mM NaPPi, 2 mM EDTA, 1 mM Na3VO4, 10% glycerol, 5 μg/mL leupeptin, 5 μg/mL aprotinin, 2 mM benzamidine, 0.5 mM DTT, and 1 mM PMSF. The lysates were then centrifuged at 10,000 rpm for 10 min at 4° C.
(§4) Total protein content was assessed by Bradford Bio-Rad protein assay (Cat. No. 500-0006, Bio-Rad, Hercules, Calif.) and 30 μg of protein was loaded on a 8% SDS-PAGE gel for phosphorylated and total ERK1/2 and ERK5 proteins. After running the samples, gels were transferred to a nitrocellulose membrane (Cat. No. 926-31092, Licor Biosciences, Lincoln, Nebr.). After transfer, membranes were washed for 5 min with 1×PBS and blocked for 1 h in a Casein Blocking Buffer (Cat. No. 927-40200, Licor Biosciences) at room temperature. Membranes were then incubated overnight at 4° C. in primary antibody in CBB with 0.2% Tween-20. Antibodies included rabbit anti-phospho-ERK1/2 (Dilution—1:1000, Cat. No. 9101, Cell Signaling, Beverly, Mass.), mouse anti-total ERK1/2 (Dilution—1:1000, Cat. No. 9107, Cell Signaling), and rabbit anti-total ERK5 (Dilution—1:1,000, Cat. No. 3372, Cell Signaling). Mouse anti-α-Tubulin (Dilution—1:10,000, Cat. No. T5168, Sigma-Aldrich) was used as a loading control. After incubation with primary antibody, blots were washed in 1×PBS solution with 0.2% Tween-20 (1×PBS-T) and incubated with goat anti-rabbit (Dilution—1:10,000, Cat. No. 926-68021, LICOR Biosciences) and goat anti-mouse (Dilution—1:10,000, Cat. No. 926-32210, LICOR Biosciences) secondary antibodies for 1 h at room temperature. After washing the membranes with 1×PBS-T, the protein bands were visualized on an Odyssey Infrared Imager and quantified with Odyssey software (LICOR Biosciences).

pERK1/2 = assay: Western blot, inhibition of EGF-mediated formation of pERK1/2 in MDA-MB-231 cells; assay type: cell-based; details: for pERK-½ decrease (%): Example 3 table, DMSO = 0, MDA-MB-231, EGF stimulation; for inhibition at 10 µM: Homo sapiens, MDA-MB-231, Table 1, MDA-MB-231, compounds 10 μM 30 min, then EGF 50 ng/mL 15 min, read-out: cellular pERK1/2 decrease (%)
Description: as §1, §2, §3, §4

[1] = Example 3 table, MDA-MB-231, EGF stimulation

In the case of `CN1CCN(C(=O)c2ccccc2Nc2ccc(I)cc2F)CC1` [Compound 24, (2-((2-fluoro-4-iodophenyl)amino)phenyl)(4-methylpiperazin-1-yl)methanone hydrochloride], the “pERK-5 decrease (%)” value (pERK5; [1]) is reported as 30.9%, the inhibition at 10 µM (pERK5) is reported as 20.9% and the “pERK-½ decrease (%)” value (pERK1/2) is reported as 33.5%. For the same compound, the inhibition at 10 µM (pERK1/2) was 33.5%.
For `N#CC(=C(/N)Sc1ccccc1N)/C(C#N)=C(\N)Sc1ccccc1N` [Compound U0126, reference compound], the “pERK-5 decrease (%)” value (pERK5; [1]) was 43% and the “pERK-½ decrease (%)” value (pERK1/2) was 99.6%.
Work on `O=C(c1ccc(F)c(F)c1Nc1ccc(I)cc1F)N1CCOCC1` [IC-3-93] yielded an inhibition at 10 µM (pERK5) of 76.3% and an inhibition at 10 µM (pERK1/2) of 47.8%.
For `O=C(c1ccc(F)c(F)c1Nc1ccc(I)cc1F)N1CCCCC1` [IC-3-97], the inhibition at 10 µM (pERK5) was 87.1% and the inhibition at 10 µM (pERK1/2) was 42.4%.
For `O=C(NCCO)c1ccc(F)c(F)c1Nc1ccc(I)cc1F` [IC-3-102], the inhibition at 10 µM (pERK5) was 47.9% and the inhibition at 10 µM (pERK1/2) was -31.1%.
Work on `O=C(N[C@@H](CO)C(=O)O)c1ccc(F)c(F)c1Nc1ccc(I)cc1F` [IC-3-111] yielded an inhibition at 10 µM (pERK1/2) of 85%.
In the case of `O=C(N[C@H](CO)C(=O)O)c1ccc(F)c(F)c1Nc1ccc(I)cc1F` [IC-3-117], the inhibition at 10 µM (pERK5) is reported as 127% and the inhibition at 10 µM (pERK1/2) is reported as 80.8%.
Work on `CN1CCN(C(=O)c2ccc(F)c(F)c2Nc2ccc(I)cc2F)CC1` [IC-D-122b] yielded an inhibition at 10 µM (pERK5) of 33% and an inhibition at 10 µM (pERK1/2) of 39%.
For `O=C(NOC[C@H](O)CO)c1ccc(F)c(F)c1Nc1ccc(I)cc1F` [PD 0325901, reference compound], the “pERK-5 decrease (%)” value (pERK5; [1]) was 95.9% and the “pERK-½ decrease (%)” value (pERK1/2) was 99.7%.
In the case of `CN(c1ccc(I)cc1F)c1c(C(=O)O)ccc(F)c1F` [SC-2-32, 3,4-difluoro-2-((2-fluoro-4-iodophenyl)(methyl)amino)benzoic acid], the “pERK-5 relative activity (%)” value (pERK5; Example 3 table, DMSO = 100, MDA-MB-231, EGF stimulation) is reported as 5.5% and the “pERK-½ decrease (%)” value (pERK1/2) is reported as 33.5%.
With `NC(=O)c1ccc(F)c(F)c1Nc1ccccc1F` [SC-2-37, 3,4-difluoro-2-((2-fluorophenyl)amino)benzamide] the melting point was 157.6 to 161.2 °C, the “pERK-5 decrease (%)” value (pERK5; [1]) was 56.1% and the “pERK-½ decrease (%)” value (pERK1/2) was 52.8%.
For `CN1CCN(C(=O)c2ccc(F)c(F)c2Nc2ccccc2F)CC1.O=C(O)/C=C/C(=O)O` [SC-2-45, (3,4-difluoro-2-((2-fluorophenyl)amino)phenyl)(4-methylpiperazin-1-yl)methanone mono-fumarate], the “pERK-5 decrease (%)” value (pERK5; [1]) was 40.5% and the “pERK-½ decrease (%)” value (pERK1/2) was 16.5%.
In the case of `CCOc1cc(N2CCC(O)CC2)ccc1Nc1ncc2c(n1)N(C)c1ccccc1C(=O)N2C` [XMD8-92, reference compound], the “pERK-5 decrease (%)” value (pERK5; [1]) is reported as 95.2% and the “pERK-½ decrease (%)” value (pERK1/2) is reported as 50.1%.
